The target in data set [1] is Histone acetyltransferase p300 (Homo sapiens, UniProt Q09472). Nature of the data set: Inhibition of MSGRGK(Ac)-GGK(Ac)GLGK(Ac)GGAKRHR-biotin binding to EP300 (1040 to 1160 residues) (unknown origin) expressed in Escherichia coli BL21 (DE3) by Alphascreen assay. (In general: Bead proximity is the source of the signal in Alpha formats.)
For another data set, the system named is Kasumi 1. In words: Antiproliferative activity against human Kasumi-1 cells assessed as reduction in cell viability measured after 72 hrs by Celltitre-glo luminescence assay. The format is functional, cell-based. The conditions noted are these: Kasumi 1, 72 h.
Data set [2] concerns the target T1, Bromodomain-containing protein 4 (Homo sapiens, UniProt O60885).
Description: Binding affinity to N-terminal His6-tagged BRD4 bromodomain 1 (49 to 170 residues) (unknown origin) expressed in Escherichia coli BL21 (DE3) assessed as change in melting temperature at 1:100 molar ratio by SYPRO orange dye based fluorescence thermal shift assay
Data set [3] relates to MV4-11. Nature of the data set: Antiproliferative activity against human MV4-11 cells assessed as reduction in cell viability measured after 72 hrs by Celltitre-glo luminescence assay. Type of data set: functional, cell-based. The conditions noted are these: MV4-11, 72 h.
The test system of a further data set is MM1.S. Nature of the data set: Antiproliferative activity against human MM1S cells assessed as reduction in cell viability measured after 72 hrs by Celltitre-glo luminescence assay. The format is functional, cell-based.
The next data set has as its system RS4-11. In words: Antiproliferative activity against human RS4:11 cells assessed as reduction in cell viability measured after 72 hrs by Celltitre-glo luminescence assay. Type of data set: functional, cell-based. Conditions: RS4-11, 72 h.
Data set [4] concerns the target T1, Bromodomain-containing protein 4. Nature of the data set: Inhibition of SGRG-K(Ac)-GG-K(Ac)-GLG-K(Ac)-GGA-K(Ac)-RHRKVGG-K-Biotin binding to N-terminal His6-tagged BRD4 bromodomain 2 (344 to 455 residues) (unknown origin) expressed in Escherichia coli BL21 (DE3) preincubated for 15 mins followed by biotin-labeled H4 peptide addition and measured after 10 mins by Alphascreen assay.

A short description of data set [5]: Half life in human liver microsomes at 0.1 uM preincubated for 10 mins followed by NADPH addition and measured up to 60 mins by LC-MS/MS analysis. Type of data set: ADME, Microsome. In general terms: Microsomes from liver hold many membrane-bound enzymes, among them those of drug oxidation.
For data set [6], the target named is T1, Bromodomain-containing protein 4. In words: Inhibition of SGRG-K(Ac)-GG-K(Ac)-GLG-K(Ac)-GGA-K(Ac)-RHRKVGG-K-Biotin binding to N-terminal His6-tagged BRD4 bromodomain 1 (49 to 170 residues) (unknown origin) expressed in Escherichia coli BL21 (DE3) preincubated for 15 mins followed by biotin-labeled H4 peptide addition and measured after 10 mins by Alphascreen assay.

Data set [7] can be described thus: Clearance in human liver microsomes at 0.1 uM preincubated for 10 mins followed by NADPH addition and measured up to 60 mins by LC-MS/MS analysis. Type of data set: ADME, Microsome. The conditions noted are these: 1 h.
Data set [8] can be described thus: Clearance in mouse liver microsomes at 0.1 uM preincubated for 10 mins followed by NADPH addition and measured up to 60 mins by LC-MS/MS analysis. The format is ADME, Microsome. Conditions: 1 h.
Data set [9] can be described thus: Clearance in rat liver microsomes at 0.1 uM preincubated for 10 mins followed by NADPH addition and measured up to 60 mins by LC-MS/MS analysis. The format is ADME, Microsome. The conditions noted are these: 1 h.
A short description of data set [10]: Half life in rat liver microsomes at 0.1 uM preincubated for 10 mins followed by NADPH addition and measured up to 60 mins by LC-MS/MS analysis. The format is ADME, Microsome.
Data set [11] in a line: Half life in mouse liver microsomes at 0.1 uM preincubated for 10 mins followed by NADPH addition and measured up to 60 mins by LC-MS/MS analysis. Type of data set: ADME, Microsome.
Data set [12] concerns MV4-11. In words: Antitumor activity against human MV4-11 cells xenografted in mouse assessed as tumor growth inhibition at 50 mg/kg, po administered for 28 days and measured every 2 to 3 days during compound dosing relative to control. Type of data set: functional. The conditions noted are these: MV4-11, po, read-out: TGI.
Data set [13] relates to MV4-11. Nature of the data set: Cell cycle arrest in human MV4-11 cells assessed as increase in accumulation at G1-phase at 125 nM measured after 24 hrs by propidium iodide staining based flow cytometry. The format is functional. Background: A flow cytometer gives signals particle by particle.
For data set [14], the target named is T1, Bromodomain-containing protein 4. Nature of the data set: Inhibition of BRD4 (unknown origin).
The target is the same in data set [15]. Nature of the data set: Inhibition of HSGRGK(Ac)GGK(Ac)GLGK(Ac)GGAK(Ac)RHRK(Biotin)-OH binding to recombinant human His6-tagged BRD4 bromodomain 1 expressed in Escherichia coli BL21 (DE3)-R3-pRARE2 cells preincubated for 30 mins followed by HSGRGK(Ac)GGK(Ac)GLGK(Ac)GGAK(Ac)RHRK(Biotin)-OH addition and measured after 30 mins by Alphascreen assay.
Data set [16] in a line: Half life in Sprague-Dawley rat at 3 mg/kg, po by LC-MS/MS analysis. Type of data set: ADME, organism-based. The conditions noted are these: in vivo.
A short description of data set [17]: Volume of distribution at steady state in Sprague-Dawley rat at 1 mg/kg, iv by LC-MS/MS analysis. The conditions noted are these: in vivo, read-out: Vdss. The format is ADME, organism-based.
Data set [18] is described as follows: Clearance in Sprague-Dawley rat at 1 mg/kg, iv by LC-MS/MS analysis. Type of data set: ADME, organism-based. The conditions noted are these: in vivo.
A short description of data set [19]: Cmax in Sprague-Dawley rat at 3 mg/kg, po by LC-MS/MS analysis. Also on record: dose 3 mg/kg, route oral. Type of data set: ADME, organism-based. The conditions noted are these: in vivo.
Data set [20] is described as follows: AUC (0 to t) in Sprague-Dawley rat at 1 mg/kg, iv by LC-MS/MS analysis. The format is ADME, organism-based. Conditions: in vivo.
Data set [21] in a line: Half life in Sprague-Dawley rat at 1 mg/kg, iv by LC-MS/MS analysis. Type of data set: ADME, organism-based. The conditions noted are these: in vivo.
A short description of data set [22]: AUC (0 to t) in Sprague-Dawley rat at 3 mg/kg, po by LC-MS/MS analysis. The format is ADME, organism-based. Conditions: in vivo.
Data set [23] can be described thus: Oral bioavailability in Sprague-Dawley rat at 3 mg/kg by LC-MS/MS analysis. Type of data set: ADME, organism-based. The conditions noted are these: in vivo.

SMILES strings stand for the structures. Activity calls are given as the source filed them. No cut-off for these calls is given here. Bounds are passed on as bounds.

Histone acetyltransferase p300, sequence (Q09472 whole entry, the tested form may be a part): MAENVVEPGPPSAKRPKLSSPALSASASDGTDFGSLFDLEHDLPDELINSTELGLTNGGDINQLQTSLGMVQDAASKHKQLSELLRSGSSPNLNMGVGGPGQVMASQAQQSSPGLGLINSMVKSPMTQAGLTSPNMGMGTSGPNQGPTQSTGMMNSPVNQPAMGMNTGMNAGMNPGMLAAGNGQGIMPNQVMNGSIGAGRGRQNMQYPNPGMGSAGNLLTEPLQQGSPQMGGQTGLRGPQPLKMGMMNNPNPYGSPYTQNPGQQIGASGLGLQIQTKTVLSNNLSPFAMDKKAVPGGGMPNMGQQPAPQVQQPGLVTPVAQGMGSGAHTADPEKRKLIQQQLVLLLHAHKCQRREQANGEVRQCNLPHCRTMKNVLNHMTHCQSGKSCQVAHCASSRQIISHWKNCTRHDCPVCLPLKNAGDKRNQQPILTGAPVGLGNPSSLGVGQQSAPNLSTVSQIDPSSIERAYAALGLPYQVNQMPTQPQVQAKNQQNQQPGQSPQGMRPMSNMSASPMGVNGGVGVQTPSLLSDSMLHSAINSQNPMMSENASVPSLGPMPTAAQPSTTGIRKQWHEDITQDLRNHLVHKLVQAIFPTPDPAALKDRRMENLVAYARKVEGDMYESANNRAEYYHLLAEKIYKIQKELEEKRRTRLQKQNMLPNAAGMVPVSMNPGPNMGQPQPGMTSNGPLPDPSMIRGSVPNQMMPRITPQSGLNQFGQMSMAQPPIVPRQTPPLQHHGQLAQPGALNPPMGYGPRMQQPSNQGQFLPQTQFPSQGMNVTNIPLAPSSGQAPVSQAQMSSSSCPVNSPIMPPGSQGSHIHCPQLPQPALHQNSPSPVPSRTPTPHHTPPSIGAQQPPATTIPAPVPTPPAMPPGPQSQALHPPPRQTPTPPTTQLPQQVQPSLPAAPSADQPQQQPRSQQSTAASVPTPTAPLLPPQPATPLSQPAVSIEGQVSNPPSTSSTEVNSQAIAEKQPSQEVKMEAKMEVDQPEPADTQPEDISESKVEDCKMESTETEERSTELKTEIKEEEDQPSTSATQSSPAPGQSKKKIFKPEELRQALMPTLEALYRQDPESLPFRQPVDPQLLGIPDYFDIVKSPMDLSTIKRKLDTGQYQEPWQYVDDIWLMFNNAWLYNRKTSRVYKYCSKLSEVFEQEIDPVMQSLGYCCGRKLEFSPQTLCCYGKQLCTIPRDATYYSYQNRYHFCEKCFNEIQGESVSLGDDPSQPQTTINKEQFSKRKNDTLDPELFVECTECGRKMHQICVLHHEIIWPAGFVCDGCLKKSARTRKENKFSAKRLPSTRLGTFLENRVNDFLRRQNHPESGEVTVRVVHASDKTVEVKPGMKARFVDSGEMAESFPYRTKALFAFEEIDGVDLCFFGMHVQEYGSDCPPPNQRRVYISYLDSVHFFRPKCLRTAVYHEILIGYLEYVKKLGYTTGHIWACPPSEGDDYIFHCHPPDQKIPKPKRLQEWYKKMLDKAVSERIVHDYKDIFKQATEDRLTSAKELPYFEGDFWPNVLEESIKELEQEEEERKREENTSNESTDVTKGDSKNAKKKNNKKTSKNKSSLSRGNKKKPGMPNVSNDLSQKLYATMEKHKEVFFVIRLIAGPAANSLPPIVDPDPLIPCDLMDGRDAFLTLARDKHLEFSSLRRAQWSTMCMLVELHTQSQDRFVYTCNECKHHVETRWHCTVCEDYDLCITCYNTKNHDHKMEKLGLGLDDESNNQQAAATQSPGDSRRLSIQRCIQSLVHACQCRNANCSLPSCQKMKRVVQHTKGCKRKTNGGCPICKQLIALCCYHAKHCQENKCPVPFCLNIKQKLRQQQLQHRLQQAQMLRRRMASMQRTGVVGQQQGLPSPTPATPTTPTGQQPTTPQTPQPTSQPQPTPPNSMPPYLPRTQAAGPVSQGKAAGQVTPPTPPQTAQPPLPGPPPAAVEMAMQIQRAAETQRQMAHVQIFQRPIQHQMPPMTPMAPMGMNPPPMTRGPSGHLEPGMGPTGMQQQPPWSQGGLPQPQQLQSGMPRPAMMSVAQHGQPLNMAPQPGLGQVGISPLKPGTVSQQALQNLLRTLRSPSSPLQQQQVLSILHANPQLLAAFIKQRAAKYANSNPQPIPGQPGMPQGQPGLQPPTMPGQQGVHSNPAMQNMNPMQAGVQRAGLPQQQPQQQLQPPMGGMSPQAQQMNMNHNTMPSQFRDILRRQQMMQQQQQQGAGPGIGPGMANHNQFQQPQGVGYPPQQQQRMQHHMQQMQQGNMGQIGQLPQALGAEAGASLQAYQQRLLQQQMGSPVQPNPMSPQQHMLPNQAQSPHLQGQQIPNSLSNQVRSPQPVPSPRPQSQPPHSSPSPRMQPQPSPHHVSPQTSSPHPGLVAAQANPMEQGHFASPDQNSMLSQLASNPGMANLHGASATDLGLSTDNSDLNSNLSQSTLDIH

One may read the IC50 as the concentration that gives 50% inhibition. As a reminder, the ΔTm is the shift of the melting midpoint relative to a reference. For `CCS(=O)(=O)Nc1ccc(Oc2ccc(F)cc2F)c(-c2cn(C)c(=O)c3[nH]ccc23)c1` [MIVEBRESIB], the half-inhibitory concentration (IC50) worked out at 63 nM in data set [1]; 6.3 nM with Kasumi 1; 1.9 nM with MV4-11 [3]; 6.5 nM in the data set on MM1.S; 6.4 nM with RS4-11; 2.7 nM in [4]. The ΔTm in data set [2] was over 1 °C.

For orientation: half-life means the time in which the quantity being followed falls by half. For `CCS(=O)(=O)Cc1ccc(Oc2ccc(F)cc2F)c(-c2cc(C)c3c(=O)[nH]ccn23)c1`, the half-life at 0.1 µM in [5] stood at 46.3 min; in [10] it was 33.9 min; in data set [11], 12 min. Also, the IC50 in data set [1] came out at 18600 nM; in data set [6], 4.7 nM; with MV4-11 [3], 6.5 nM; in [4] it was 7.4 nM. Also, the Microsomal intrinsic clearance in data set [7] was found to be 46 mL/min/g; in data set [8] it was 175 mL/min/g. In addition, the ΔTm in [2] is over 1 °C. This molecule had an Intrinsic clearance in [9] of 61.9 mL/min/g.

For the molecule `Cc1sc2c(c1C)C(c1ccc(Cl)cc1)=N[C@@H](CC(=O)Nc1ccc(O)cc1)c1nnc(C)n1-2` [BIRABRESIB], the half-inhibitory concentration (IC50) in [1] is over 33000 nM; in the data set on Kasumi 1, 135 nM; in the data set with MV4-11 [3] it was 46.3 nM; in the data set on MM1.S, 137 nM; with RS4-11 it was 416 nM. Besides, the inhibition in vivo at 50 mg/kg in the data set with MV4-11 [12] was determined as 62.3%. Further, the outcome with MV4-11 [13] was Active.

Regarding `Cc1sc2c(c1C)C(c1ccc(Cl)cc1)=N[C@@H](CC(N)=O)c1nnc(C)n1-2`, the half-inhibitory concentration (IC50) in [14] was in the range of 92 to 112 nM.

For the molecule `CC(=O)C[C@@H]1N=C(c2ccc(Cl)cc2)c2c(sc(C)c2C)-n2c(C)nnc21`, the IC50 in data set [15] is 77 nM.

As a reminder, the clearance is a measure of how efficiently the substance is removed, as volume per time. A higher clearance goes with efficient removal. One may read the Cmax as the highest concentration seen after dosing. As a reminder, the AUC(0-t) is the area under the concentration-time curve up to a stated or last time point. A word on the bioavailability: it is dose-corrected exposure relative to a reference, in per cent. A lower bioavailability goes with poor availability. On to `Cc1cc(-c2cc(CS(C)(=O)=O)cnc2Oc2ccc(F)cc2F)n2cc[nH]c(=O)c12`, for which the half-life at 0.1 µM came to 80.4 min in data set [5], 32.5 min in data set [10] and 58.5 min in data set [11]. In addition, the half-inhibitory concentration (IC50) in data set [1] is 2200 nM; in [6] it was 7.4 nM; in the data set on MV4-11 [3], 14.2 nM; in [4], 3.5 nM. In addition, the half-life in data set [16] is 90 min; in data set [21], 48 min. Besides, the Vd in data set [17] worked out at 1.9 L/kg. In addition, the Microsomal intrinsic clearance in [7] was determined as 26.1 mL/min/g; in [8], 35.7 mL/min/g. In addition, the thermal shift (ΔTm) in data set [2] was over 1 °C. In data set [18], this molecule displayed a clearance of 37.5 mL/min/kg. In addition, in data set [19], the highest level (Cmax) was 160 ng/mL. Further, the values for the AUC(0-t) in data set [20] and in data set [22] were 457 ng·h/mL and 520 ng·h/mL, respectively. For the same molecule, the bioavailability in [23] was found to be 37.9%. The Intrinsic clearance in data set [9] amounted to 64.6 mL/min/g.

Source of the values: ChEMBL document CHEMBL4402585 (J Med Chem, 2020).
